Where two headings read alike, the source gives them in different places. One block for each molecule: values may come before it.
How the values were obtained:
[1] = target: T1, Coprinus cinereus peroxidase (CiP) (Coprinopsis cinerea, UniProt P28314); assay: Initial bleaching of Direct Blue 1 by CiP with enhancer (Example 1); assay type: biochemical; conditions: 10 μM enhancer, 20 μM H2O2, 30° C., 610 nm
T1 construct: made in house
T1 sequence (P28314 21-363): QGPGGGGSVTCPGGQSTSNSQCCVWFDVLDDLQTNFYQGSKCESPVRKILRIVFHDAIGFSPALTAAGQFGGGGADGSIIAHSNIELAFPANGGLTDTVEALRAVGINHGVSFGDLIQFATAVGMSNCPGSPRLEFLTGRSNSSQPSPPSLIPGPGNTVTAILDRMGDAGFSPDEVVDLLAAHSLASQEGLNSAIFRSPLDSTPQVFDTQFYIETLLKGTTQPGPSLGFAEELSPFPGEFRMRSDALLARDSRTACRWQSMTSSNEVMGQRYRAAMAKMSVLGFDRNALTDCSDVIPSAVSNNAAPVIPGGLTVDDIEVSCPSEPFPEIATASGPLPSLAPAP
Protocol: The initial bleaching of Direct Blue 1 (DB1) by CiP using a selection of enhancers according to the invention was compared to the half-life of the oxidized enhancer (electron acceptor) measured under standard conditions.
Conditions for bleaching:
200 μl 50 mM Britton-Robinson* buffer
pH 8.5 and 10.5, respectively
After 5 seconds the bleaching was followed for at least 1 minute, and the initial bleaching rates (reduction in milli-absorbance units per minute, -ΔmAbs/min, determined from the initial slope of the absorbance curve) were determined.

[2] = Decay of oxidized vanillin and 7-hydroxycoumarin from cyclic voltammograms (Example 7); assay type: physicochemical; conditions: enhancer 2 mM; comparison of experimental with simulated voltammograms
Protocol: The half-life of vanillin and 7-hydroxycoumarin was determined from cyclic voltammograms of the enhancers. The cyclic voltammograms were obtained in a three-electrode system consisting of
(§1) Working electrode Platinum disc
(§2) Counter electrode Platinum wire
(§3) Reference electrode Calomel
The concentration of the enhancers was 2 mM.
The order of the decay reaction of the oxidized enhancers was determined from the dependence of the peak position of the oxidizing peak (Epo) on the scan rate (.nu.). For both enhancers (δEpo /δlog.nu.)=0.019 V in the scan rate range 0.1-1.0 V/s showing that the decay reaction is 2nd order.
The rate constant of the decay reaction of the oxidized enhancers was determined from a comparison of the experimental cyclic voltammograms with simulated voltammograms. The parameters needed for the simulation are the reaction order of the decay reaction, the concentration of the enhancer, the scan rate […] the rate constant for the decay reaction as described in Analytical Chemistry, Vol. 60, p. 1159, 1988.

[3] = ESR
Protocol: The stability of the ABTS radical formed by oxidation of ABTS with a recombinantly produced Coprinus cinereus peroxidase (rCiP), obtained according to Example 1, was studied by electron spin resonance technique (ESR). The ESR signal was calculated after 20 scans, where the area under curve corresponds to the concentration of the radical. The signal was integrated from 3260 Gaus to 3300 Gaus.
The stability of the radical was determined in 0.1M Britton & Robinson buffer at different pH values. A concentration of 2.27 mM H2 O2 and an enzyme concentration 34 PODU/ml was applied.
The half-lives in Table 3 measured at different concentrations have for comparison been calculated to a concentration of 250 μM assuming a 2nd order decay.

[4] = Half-life of benzidine derivatives by cyclic voltametri (Example 8); assay type: physicochemical; conditions: CV in DMF/H2O buffer (1/9), 2 mM, two electron transfer
Protocol: The half-life of the different benzidine derivatives was measured by cyclic voltametri (CV) in DMF/H2 O buffer (1/9) at pH 8.5 and 10.5 as described in. The concentration of the benzidines were 2 mM, and the half-life (t1/2) of the compounds is referring to a two electron transfer.

[5] = Half-life of oxidized enhancer from cyclic voltammogram (Example 1); assay type: physicochemical; conditions: pH 10.5, enhancer 8 mM
Protocol: The half-life of the oxidized enhancers were determined from a cyclic voltammogram of the enhancers present at a concentration of 8 mM. The cyclic voltammograms were obtained in a standard three-electrode system consisting of
as §1, §2, §3
The half-life (t1/2) of the oxidized enhancers was calculated from the scan rates (.nu.), peak positions and switching potential in a cyclic voltammogram in which the peak current of the reducing peak had half the value of the peak current of the oxidizing peak. [formula] ΔE is the difference of the peak position of the reducing peak and the switching potential.
The switching potential was fixed at a potential 0.2 V higher than the peak position of the oxidizing peak in a reversible voltammogram. A reversible voltammogram is obtained at scan rates at which the difference between the peak positions of the oxidizing and reducing peak approaches 0.059 V.

CiP = target: T2, CiP (Coprinopsis cinerea, UniProt P28314); assay: Apparent kinetic constants for oxidation of enhancer by CiP (Example 9); assay type: biochemical, Coprinus cinereus; conditions: pH 8.5, 30° C.; for Kcat (app.): turnover number calculated as Vmax/[CiP]o
T2 construct: made in house
T2 sequence (P28314 21-363): T1 sequence (P28314 21-363)
Protocol: (§4) The apparent kinetic constants for the oxidation of some of the enhancers of the invention, 10-ethyl-4-phenothiazinecarboxylic acid (EPC) and 10-phenothiazinepropionic acid (PTP), were determined using CiP (4nM for PTP and 3.1 nM for EPC), borate buffer (10 mM) pH 8.5, H2 O2 (50 μM) and varied concentrations of enhancer, 30° C. Formation of oxidized enhancer was monitored at 514 nm.
(§5) When Kcat (app.) is defined as the turnover number calculated as
(§6) Vmax /[CiP]o, where [CiP]o is the initial concentration of […]

[6] = substrate: O=C(O)CCN1c2ccccc2Sc2ccccc21; assay: as above; assay type: biochemical, Coprinus cinereus; conditions: other: CiP 4 nM for PTP, 3.1 nM for EPC, borate buffer 10 mM pH 8.5, 50 μM H2O2, 30° C., 514 nm
Protocol: as §4, §5, §6

[7] = substrate: CCN1c2ccccc2Sc2c(C(=O)O)cccc21; assay: as above; assay type: biochemical, Coprinus cinereus; conditions: other: CiP 4 nM for PTP, 3.1 nM for EPC, borate buffer 10 mM pH 8.5, 50 μM H2O2, 30° C., 514 nm
Protocol: as §4, §5, §6

Molecule: O=c1ccc2ccc(O)cc2o1 [7-hydroxycoumarin]
rate constant for the decay reaction of the oxidized enhancer [2]: ~10^8 M^-1 s^-1

Molecule: CCn1c(=NN=c2sc3cc(S(=O)(=O)O)ccc3n2CC)sc2cc(S(=O)(=O)O)ccc21 [ABTS, 2,2'-azino-bis (3-ethylbenzothiazoline-6-sulfonate)]
t1/2 of ABTS radical ([3]; pH 3, initial concentration 0.45 mM, 0.1M Britton & Robinson buffer): 83 h | t1/2 of ABTS radical ([3]; pH 4, initial concentration 0.45 mM): 66 h | t1/2 of ABTS radical ([3]; pH 6, initial concentration 0.45 mM): 6.75 h | t1/2 of ABTS radical ([3]; pH 7, initial concentration 0.24 mM): 1.4 h | t1/2 of ABTS radical ([3]; pH 8.7, initial concentration 0.24 mM): 0.67 h

Molecule: COc1cc(C=O)ccc1O [vanillin]
rate constant for the decay reaction of the oxidized enhancer [2]: ~10^8 M^-1 s^-1

Molecule: Cc1cc(-c2cc(C)c(N)c(C)c2)cc(C)c1N [3,3',5,5'-tetramethyl-benzidine, 3,3',5,5'-tetramethylbenzidine]
t1/2 (half-life of oxidized enhancer) ([4]; pH 8.5): 4.5 s | t1/2 (half-life of oxidized enhancer) ([4]; pH 10.5): 5 s

B1: CiP (Coprinopsis cinerea) (protein)
chain: T1 sequence (P28314 21-363)
notes: made in house
Km [6]: 53 µM | Km [7]: 31 µM

The next lines start with the values.

bleaching (initial bleaching of Direct Blue 1) ([1]; pH 8.5, 2 nM CiP): 72 -ΔmAbs/min | bleaching (initial bleaching of Direct Blue 1) ([1]; pH 10.5, 1 nM CiP): 99 -ΔmAbs/min
Molecule: COC(=O)CCN1c2ccccc2Sc2ccccc21 [methyl-10-phenothiazine-propionate]

bleaching (initial bleaching of Direct Blue 1) ([1]; pH 8.5, 2 nM CiP): 27 -ΔmAbs/min | bleaching (initial bleaching of Direct Blue 1) ([1]; pH 10.5, 1 nM CiP): 25 -ΔmAbs/min
Molecule: CC(=O)c1ccc2c(c1)N(C)c1ccccc1S2 [2-acetyl-10-methyl-phenothiazine]

bleaching (initial bleaching of Direct Blue 1) ([1]; pH 8.5, 2 nM CiP): 240 -ΔmAbs/min | bleaching (initial bleaching of Direct Blue 1) ([1]; pH 10.5, 1 nM CiP): 480 -ΔmAbs/min
Molecule: CN1c2ccccc2Sc2ccccc21 [10-methyl-phenothiazine]

t1/2 (half-life of the oxidized enhancer) [5]: 2.5 s | 1/kcat (app.) (CiP): ~ 1 ms | Kcat (app.) (CiP): 997 ± 64 s⁻¹ | bleaching (initial bleaching of Direct Blue 1) ([1]; pH 8.5, 2 nM CiP): 816 -ΔmAbs/min | bleaching (initial bleaching of Direct Blue 1) ([1]; pH 10.5, 1 nM CiP): 864 -ΔmAbs/min
Molecule: CCN1c2ccccc2Sc2c(C(=O)O)cccc21 [10-ethyl-4-phenothiazine-carboxylic acid, 10-ethyl-4-phenothiazinecarboxylic acid]

1/kcat (app.) (CiP): ~ 1.5 ms | Kcat (app.) (CiP): 671 ± 124 s⁻¹ | bleaching (initial bleaching of Direct Blue 1) ([1]; pH 8.5, 2 nM CiP): 486 -ΔmAbs/min | bleaching (initial bleaching of Direct Blue 1) ([1]; pH 10.5, 1 nM CiP): 468 -ΔmAbs/min
Molecule: O=C(O)CCN1c2ccccc2Sc2ccccc21 [10-phenothiazine propionic acid, 10-phenothiazinepropionic acid]

Source: patent publication US5700769A, “Enhancement of enzyme reactions” (Novo Nordisk A/S, priority 1992, dated 1997)
